This passage reports melting point results from US20100029619A1, “FUSED HETEROCYCLIC COMPOUND” (TAKEDA PHARMACEUTICAL COMPANY LIMTED, priority 2006, published 2010).

In the case of `CC(C)(C)c1ccc(C(=O)Nc2cn3nc(-n4cnc(CC#N)c4)ccc3n2)cc1` [Example 142, 4-tert-butyl-N-{6-[4-(cyanomethyl)-1H-imidazol-1-yl]imidazo[1,2-b]pyridazin-2-yl}benzamide], the melting point (in general, the temperature, or range, at which the solid turns liquid) is 314 to 316 °C (dec.).
In the case of `CC(C)(C)c1ccc(C(=O)Nc2cn3nc(NCc4ccncc4)ccc3n2)cc1` [Example 159, 4-tert-butyl-N-{6-[(pyridin-4-ylmethyl)amino]imidazo[1,2-b]pyridazin-2-yl}benzamide] it was 222 to 223 °C; in that of `CC(C)(CCc1noc(=O)[nH]1)c1ccc(C(=O)Nc2cn3cc(-n4ccnc4)ccc3n2)cc1` [Example 437, 4-[1,1-dimethyl-3-(5-oxo-4,5-dihydro-1,2,4-oxadiazol-3-yl)propyl]-N-[6-(1H-imidazol-1-yl)imidazo[1,2-a]pyridin-2-yl]benzamide], 283 to 284 °C.
`CC(C)(CNC(=O)c1ncc[nH]1)c1ccc(C(=O)Nc2cn3cc(C(F)(F)F)ccc3n2)cc1` [Example 457, N-[2-methyl-2-(4-{[6-(trifluoromethyl)imidazo[1,2-a]pyridin-2-yl]carbamoyl}phenyl)propyl]-1H-imidazole-2-carboxamide]: the melting point was 292 to 293 °C.
In the case of `CC(C)(C(=O)O)c1ccc(C(=O)Nc2cn3cc(Cl)ccc3n2)cc1` [Example 31, 2-{4-[(6-chloroimidazo[1,2-a]pyridin-2-yl)carbamoyl]phenyl}-2-methylpropanoic acid] it was 311 to 313 °C.
In the case of `CC(C)(C)c1ccc(C(=O)Nc2cn3cc(-n4cncn4)ccc3n2)cc1` [Example 469, 4-tert-butyl-N-[6-(1H-1,2,4-triazol-1-yl)imidazo[1,2-a]pyridin-2-yl]benzamide] it was 274 to 276 °C; in that of `CC(C)(CNC(=O)C(O)CO)c1ccc(C(=O)Nc2cn3cc(Cl)ccc3n2)cc1` (stereo not shown) [Example 450, N-(6-chloroimidazo[1,2-a]pyridin-2-yl)-4-[2-(glyceroylamino)-1,1-dimethylethyl]benzamide], 228 to 229 °C; in that of `CC(C)(C)c1ccc(C(=O)Nc2cn3nc(NCCc4cccnc4)ccc3n2)cc1` [Example 163, 4-tert-butyl-N-{6-[(2-pyridin-3-ylethyl)amino]imidazo[1,2-b]pyridazin-2-yl}benzamide], 231 °C.
As for `Cc1ccc2nc(NC(=O)c3ccc(C(C)(C)CCC#N)cc3)cn2c1` [Example 438, 4-(3-cyano-1,1-dimethylpropyl)-N-(6-methylimidazo[1,2-a]pyridin-2-yl)benzamide], the melting point lay in the range of 194 to 195 °C.
Under `CC(C)(CC(=O)O)c1ccc(C(=O)Nc2cn3cc(Cl)ccc3n2)cc1` [Example 117, 3-(4-{[(6-chloroimidazo[1,2-a]pyridin-2-yl)amino]carbonyl}phenyl)-3-methylbutanoic acid] stands 304 to 306 °C (dec.); under `CC(C)(CNC(=O)c1c[nH]cn1)c1ccc(C(=O)Nc2cn3cc(C(F)(F)F)ccc3n2)cc1` [Example 456, N-[2-methyl-2-(4-{[6-(trifluoromethyl)imidazo[1,2-a]pyridin-2-yl]carbamoyl}phenyl)propyl]-1H-imidazole-4(5)-carboxamide], 174 to 176 °C; under `CC(C)(CO)c1ccc(C(=O)Nc2cn3cc(Cl)ccc3n2)cc1` [Example 90, N-[6-chloroimidazo[1,2-a]pyridin-2-yl]-4-(2-hydroxy-1,1-dimethylethyl)benzamide], 240 to 242 °C.
Under `COC(=O)C(C)(C)c1ccc(C(=O)Nc2cn3cc(C)ccc3n2)cc1` [Example 19, methyl 2-methyl-2-{4-[(6-methylimidazo[1,2-a]pyridin-2-yl)carbamoyl]phenyl}propanoate] stands 228 to 230 °C; under `CC(C)(C(=O)NCC#N)c1ccc(C(=O)Nc2cn3cc(Cl)ccc3n2)cc1` [Example 34, N-(6-chloroimidazo[1,2-a]pyridin-2-yl)-4-{2-[(cyanomethyl)amino]-cyano-1,1-dimethyl-2-oxoethyl}benzamide], 268 to 269 °C.
As for `CC(C)(C)c1ccc(C(=O)Nc2cn3nc(-n4cnc(Br)c4)ccc3n2)cc1` [Example 147, N-[6-(4-bromo-1H-imidazol-1-yl)imidazo[1,2-b]pyridazin-2-yl]-4-tert-butylbenzamide], the melting point lay within 306 to 307 °C.
In the case of `CC(C)(CCC#N)c1ccc(C(=O)Nc2cn3cc(Cl)ccc3n2)cc1` [Example 32, N-(6-chloroimidazo[1,2-a]pyridin-2-yl)-4-(3-cyano-1,1-dimethylpropyl)benzamide] it was 198 to 199 °C.
In the case of `CC(C)(C)c1ccc(C(=O)Nc2cn3nc(NC4CCNCC4)ccc3n2)cc1` [Example 171, 4-tert-butyl-N-[6-(piperidin-4-ylamino)imidazo[1,2-b]pyridazin-2-yl]benzamide] it was 242 to 243 °C; in that of `CC(C)(C)c1ccc(C(=O)Nc2cn3ccccc3n2)cc1` [Example 54, 4-tert-butyl-N-(imidazo[1,2-a]pyridin-2-yl)benzamide], 230 to 231 °C; in that of `CC(C)(C)c1ccc(C(=O)Nc2cn3cc(C#N)ccc3n2)cc1` [Example 78, 4-tert-butyl-N-[6-cyanoimidazo[1,2-a]pyridin-2-yl]benzamide], 300 to 301 °C.
In the case of `Cn1cc(-c2ccc3nc(NC(=O)c4ccc(C(C)(C)C)nc4)cn3c2)cn1` [Example 105, 6-tert-butyl-N-[6-(1-methyl-1H-pyrazol-4-yl)imidazo[1,2-a]pyridin-2-yl]nicotinamide] it was 228 to 230 °C; in that of `CC(C)(C)c1ccc(C(=O)Nc2cn3cc(-c4cnco4)ccc3n2)cc1` [Example 74, 4-tert-butyl-N-[6-(1,3-oxazol-5-yl)imidazo[1,2-a]pyridazin-2-yl]benzamide], 265 to 266 °C; in that of `Cc1c(NC(=O)c2ccc(C(C)(C)C)cc2)nc2ccc(Cl)nn12` [Example 55, 4-tert-butyl-N-(6-chloro-3-methylimidazo[1,2-b]pyridazin-2-yl)benzamide], 269 to 270 °C.
The compound `Cc1c(NC(=O)c2ccc(C(C)(C)C)cc2)nc2ccc(-n3ccnc3)nn12` [Example 56, 4-tert-butyl-N-[6-(1H-imidazol-1-yl)-3-methylimidazo[1,2-b]pyridazin-2-yl]benzamide] displayed a melting point of 302 to 303 °C.
Under `CC(C)(C)c1ccc(C(=O)Nc2cn3cc(-c4cnc[nH]4)ccc3n2)cc1` [Example 76, 4-tert-butyl-N-[6-(1H-imidazol-5-yl)imidazo[1,2-a]pyridin-2-yl]benzamide] stands 297 to 298 °C.
Take `COC(=O)C(C)(C)c1ccc(C(=O)Nc2cn3cc(-c4ccsc4)ccc3n2)cc1` [Example 24, methyl 2-methyl-2-(4-{[6-(3-thienyl)imidazo[1,2-a]pyridin-2-yl]carbamoyl}phenyl)propanoate]: the melting point fell in the range of 200 to 201 °C.
The compound `CC(C)(CCc1noc(=O)[nH]1)c1ccc(C(=O)Nc2cn3cc(C(F)(F)F)ccc3n2)cc1` [Example 447, 4-[1,1-dimethyl-3-(5-oxo-4,5-dihydro-1,2,4-oxadiazol-3-yl)propyl]-N-[6-(trifluoromethyl)imidazo[1,2-a]pyridin-2-yl]benzamide] showed a melting point of 268 to 270 °C.
Under `CC(C)(C)c1ccc(C(=O)Nc2cn3cc(-c4cn[nH]c4)ccc3n2)cn1` [Example 114, 6-tert-butyl-N-[6-(1H-pyrazol-4-yl)imidazo[1,2-a]pyridin-2-yl]nicotinamide] stands 238 to 240 °C; under `CNC(=O)CC(C)(C)c1ccc(C(=O)Nc2cn3cc(Cl)ccc3n2)cc1` [Example 128, N-(6-chloroimidazo[1,2-a]pyridin-2-yl)-4-[1,1-dimethyl-3-(methylamino)-3-oxopropyl]benzamide], 228 to 230 °C; under `CC(C)(CCC(=O)O)c1ccc(C(=O)Nc2cn3cc(Cl)ccc3n2)cc1` [Example 118, 4-(4-{[(6-chloroimidazo[1,2-a]pyridin-2-yl)amino]carbonyl}phenyl)-4-methylpentanoic acid], 309 to 311 °C (dec.).
The compound `CC(C)(CO)c1ccc(C(=O)Nc2cn3cc(C(F)(F)F)ccc3n2)cc1` [Example 461, 4-(2-hydroxy-1,1-dimethylethyl)-N-[6-(trifluoromethyl)imidazo[1,2-a]pyridin-2-yl]benzamide] came in with a melting point of 227 to 229 °C.
In the case of `CC(=O)NCC(C)(C)c1ccc(C(=O)Nc2cn3cc(Cl)ccc3n2)cc1` [Example 122, 4-[2-(acetylamino)-1,1-dimethylethyl]-N-(6-chloroimidazo[1,2-a]pyridin-2-yl)benzamide] it was 220 to 222 °C.
Under `CCC(=O)NC(C)(C)c1ccc(C(=O)Nc2cn3cc(Cl)ccc3n2)cc1` [Example 129, N-(6-chloroimidazo[1,2-a]pyridin-2-yl)-4-[1-methyl-1-(propionylamino)ethyl]benzamide] stands 249 to 252 °C; under `CC(C)(C)c1ccc(C(=O)Nc2cn3cc(-c4ccncc4)ccc3n2)cc1` [Example 59, 4-tert-butyl-N-[6-(pyridin-4-yl)imidazo[1,2-a]pyridin-2-yl]benzamide], 293 to 294 °C.
In turn, `COC(=O)C(C)(C)c1ccc(C(=O)Nc2cn3cc(-c4ccoc4)ccc3n2)cc1` [Example 26, methyl 2-methyl-2-(4-{[6-(3-furyl)imidazo[1,2-a]pyridin-2-yl]carbamoyl}phenyl)propanoate] showed a melting point of 202 to 203 °C.
In the case of `CCN(c1ccc(C(=O)Nc2cn3cc(Cl)ccc3n2)cc1)S(C)(=O)=O` [Example 131, N-(6-chloroimidazo[1,2-a]pyridin-2-yl)-4-[ethyl(methylsulfonyl)amino]benzamide] it was 245 to 247 °C; in that of `O=C(Nc1cn2cc(Cl)ccc2n1)c1ccc(-n2cccn2)cc1` [Example 95, N-(6-chloroimidazo[1,2-a]pyridin-2-yl)-4-(1H-pyrazol-1-yl)benzamide], 287 to 289 °C.
`CC(C)(C)c1ccc(C(=O)Nc2cn3cc(-c4ccsc4)ccc3n2)cc1` [Example 108, 4-tert-butyl-N-[6-(3-thienyl)imidazo[1,2-a]pyridin-2-yl]benzamide]: the melting point lay within 261 to 263 °C.
